Assay results: patent publication US20230128402A1 (The Trustees of Princeton University, priority 2020, published 2023)

Columns and labels:
ALDH1a3 = molecular target: T1, ALDH1a3 (Homo sapiens, UniProt P47895); assay: Aldh1a3 enzyme inhibition assay, recombinant hALDH1a3; assay type: biochemical; design: made in house; host or cells: E. coli BL21-DE3, pET-Aldh1a3; settings: resorufin fluorescence, 20° C.
T1 sequence (P47895 1-512): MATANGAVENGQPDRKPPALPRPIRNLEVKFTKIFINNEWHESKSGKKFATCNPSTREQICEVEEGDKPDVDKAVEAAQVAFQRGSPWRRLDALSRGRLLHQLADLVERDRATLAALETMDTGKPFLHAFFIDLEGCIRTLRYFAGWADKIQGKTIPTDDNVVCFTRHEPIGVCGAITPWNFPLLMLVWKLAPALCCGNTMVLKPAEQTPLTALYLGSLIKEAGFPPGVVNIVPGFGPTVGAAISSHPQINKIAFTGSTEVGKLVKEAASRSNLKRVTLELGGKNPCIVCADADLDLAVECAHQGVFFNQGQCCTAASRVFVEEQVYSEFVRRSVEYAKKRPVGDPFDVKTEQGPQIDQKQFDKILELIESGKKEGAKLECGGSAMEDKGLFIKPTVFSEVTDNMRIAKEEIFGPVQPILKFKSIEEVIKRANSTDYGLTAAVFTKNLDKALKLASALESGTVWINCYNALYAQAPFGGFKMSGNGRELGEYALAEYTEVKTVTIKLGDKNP
Excerpt: (§1) Recombinant enzyme and inhibitor added immediately before assay. Reaction rate measured by resorufin fluorescence.

mALDH1a3 = molecular target: T2, mALDH1a3 (Mus musculus, UniProt Q9JHW9); assay: Aldh1a3 enzyme inhibition assay, recombinant mALDH1a3; assay type: biochemical; settings: resorufin fluorescence, 20° C.
T2 construct: made in house; host or cells: E. coli BL21-DE3, pET-Aldh1a3
T2 sequence (Q9JHW9 1-512): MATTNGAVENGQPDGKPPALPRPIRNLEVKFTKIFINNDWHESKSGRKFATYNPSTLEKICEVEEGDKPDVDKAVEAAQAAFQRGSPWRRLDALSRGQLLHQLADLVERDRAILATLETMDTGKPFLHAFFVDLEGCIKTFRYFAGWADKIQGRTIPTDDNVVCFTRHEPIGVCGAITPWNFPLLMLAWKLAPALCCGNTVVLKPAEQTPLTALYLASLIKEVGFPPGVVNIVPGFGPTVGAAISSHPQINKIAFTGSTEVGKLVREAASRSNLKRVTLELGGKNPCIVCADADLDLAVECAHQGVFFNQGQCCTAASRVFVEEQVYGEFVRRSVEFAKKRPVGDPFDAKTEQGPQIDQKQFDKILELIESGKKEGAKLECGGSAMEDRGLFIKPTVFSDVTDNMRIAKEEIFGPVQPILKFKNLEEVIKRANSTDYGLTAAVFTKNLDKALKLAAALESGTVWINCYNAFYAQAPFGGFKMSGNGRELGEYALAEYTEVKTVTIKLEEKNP
Excerpt: as §1

Compound | IC50 (ALDH1a3) | IC50 (mALDH1a3)
CCc1cccnc1C(=O)Nc1cc2c(cc1Cl)NC(=O)CC2 [Compound 72, N-(7-chloro-2-oxo-3,4-dihydro-1H-quinolin-6-yl)-3-ethyl-pyridine-2-carboxamide] | 250 to 1000 nM | 250 to 1000 nM
O=C1CCc2cc(Oc3ncc4ccccc4n3)ccc2N1 [Compound 119, 6-quinazolin-2-yloxy-3,4-dihydro-1H-quinolin-2-one] | > 5000 nM | > 5000 nM
O=C1CCc2cc(NC(=O)c3ccncc3CC3CC3)c(F)cc2N1 [Compound 81, 3-(cyclopropylmethyl)-N-(7-fluoro-2-oxo-3,4-dihydro-1H-quinolin-6-yl)pyridine-4-carboxamide] | < 100 nM | < 100 nM
Cc1ccc2ccc(Nc3ccc4c(c3)CCC(=O)N4)nc2c1 [Compound 91, 6-[(7-methyl-2-quinolyl)amino]-3,4-dihydro-1H-quinolin-2-one] | > 5000 nM | 1000 to 5000 nM
CCc1c[n+]([O-])ccc1C(=O)Nc1ccc2c(c1)CCC(=O)N2 [Compound 73, 3-ethyl-1-oxido-N-(2-oxo-3,4-dihydro-1H-quinolin-6-yl)pyridin-1-ium-4-carboxamide] | 1000 to 5000 nM | > 5000 nM
COc1cnccc1C(=O)Nc1cc2c(cc1F)NC(=O)C(C)(C)C2 [Compound 41, N-(7-fluoro-3,3-dimethyl-2-oxo-1,4-dihydroquinolin-6-yl)-3-methoxy-pyridine-4-carboxamide] | > 5000 nM | > 5000 nM
CCc1c(C(=O)Nc2ccc3c(c2)CCC(=O)N3)cc[nH]c1=O [Compound 50, 3-ethyl-2-oxo-N-(2-oxo-3,4-dihydro-1H-quinolin-6-yl)-1H-pyridine-4-carboxamide] | 100 to 250 nM | 1000 to 5000 nM
Cc1cc(C(=O)Nc2cc3c(cc2F)NC(=O)C(C)(C)C3)c(CC(C)C)cn1 [Compound 37, N-(7-fluoro-3,3-dimethyl-2-oxo-1,4-dihydroquinolin-6-yl)-5-isobutyl-2-methyl-pyridine-4-carboxamide] | 1000 to 5000 nM | > 5000 nM
Cc1cccc2ccc(Nc3ccc4c(c3)CC(C)(C)C(=O)N4)nc12 [Compound 111] | > 5000 nM | > 5000 nM
CCc1cnccc1C(=O)Nc1ccc2c(c1)CC(C)(CC)C(=O)N2 (stereo not shown) [Compound 62, 3-ethyl-N-(3-ethyl-3-methyl-2-oxo-1,4-dihydroquinolin-6-yl)pyridine-4-carboxamide] | 1000 to 5000 nM | > 5000 nM
Cc1ccc(Nc2ccc3c(c2)CC(C)(C)C(=O)N3)nc1C [Compound 96, 6-[(5,6-dimethyl-2-pyridyl)amino]-3,3-dimethyl-1,4-dihydroquinolin-2-one] | > 5000 nM | > 5000 nM
CC1(C)Cc2cc(Nc3ccc4ccncc4c3)ccc2NC1=O [Compound 104, 6-(7-isoquinolylamino)-3,3-dimethyl-1,4-dihydroquinolin-2-one] | > 5000 nM | > 5000 nM
Cc1cnccc1C(=O)Nc1ccc2c(c1)CCC(=O)N2 [Compound 21] | > 5000 nM | > 5000 nM
O=C1CCc2cc(Nc3cnc4ccccc4n3)ncc2N1 [Compound 126, 6-(quinoxalin-2-ylamino)-3,4-dihydro-1H-1,7-naphthyridin-2-one] | 250 to 1000 nM | < 100 nM
CCc1cnc(F)cc1C(=O)Nc1ccc2c(c1)CCC(=O)N2 [Compound 78, 5-ethyl-2-fluoro-N-(2-oxo-3,4-dihydro-1H-quinolin-6-yl)pyridine-4-carboxamide] | < 100 nM | 250 to 1000 nM
CCc1cnc(C)cc1C(=O)Nc1cc2c(cc1F)NC(=O)CC2 [Compound 79, 5-ethyl-N-(7-fluoro-2-oxo-3,4-dihydro-1H-quinolin-6-yl)-2-methyl-pyridine-4 carboxamide] | 250 to 1000 nM | 250 to 1000 nM
CC1(C)Cc2cc(Nc3c[nH]c4ccccc4c3=O)ccc2NC1=O [Compound 115, 3,3-dimethyl-6-[(4-oxo-1H-quinolin-3-yl)amino]-1,4-dihydroquinolin-2-one] | > 5000 nM | > 5000 nM
CC1(C)Cc2cc(Nc3ccc4cnccc4c3)ccc2NC1=O [Compound 103, 6-(6-isoquinolylamino)-3,3-dimethyl-1,4-dihydroquinolin-2-one] | > 5000 nM | > 5000 nM
CC1(C)Cc2cc(Nc3ccc4c(n3)CCCC4=O)ccc2NC1=O [Compound 127, 3,3-dimethyl-6-[(5-oxo-7,8-dihydro-6H-quinolin-2-yl)amino]-1,4-dihydroquinolin-2-one] | 1000 to 5000 nM | > 5000 nM
CC1(C)Cc2cc(Nc3ccc(Cl)cn3)ccc2NC1=O [Compound 123, 6-[(5-chloro-2-pyridyl)amino]-3,3-dimethyl-1,4-dihydroquinolin-2-one] | > 5000 nM | > 5000 nM
CCCc1cnccc1C(=O)Nc1cc2c(cc1F)NC(=O)CC2 [Compound 5] | < 100 nM | 250 to 1000 nM
CCc1cnccc1C(=O)Nc1cc2c(cc1C#N)NC(=O)CC2 [Compound 84, N-(7-cyano-2-oxo-3,4-dihydro-1H-quinolin-6-yl)-3-ethyl-pyridine-4-carboxamide] | 250 to 1000 nM | 250 to 1000 nM
Cc1ccc2nc(Nc3ccc4c(c3)CCC(=O)N4)ccc2c1 [Compound 89, 6-[(6-methyl-2-quinolyl)amino]-3,4-dihydro-1H-quinolin-2-one] | > 5000 nM | 1000 to 5000 nM
CCc1cc(C(=O)Nc2ccc3c(c2)CCC(=O)N3)ccn1 [Compound 29] | > 5000 nM | > 5000 nM

The remaining lines, values ahead:

IC50 (ALDH1a3) | IC50 (mALDH1a3) | Compound
> 5000 nM | > 5000 nM | CN(C)Cc1cnccc1C(=O)Nc1ccc2c(c1)CCC(=O)N2 [Compound 58, 3-[(dimethylamino)methyl]-N-(2-oxo-3,4-dihydro-1H-quinolin-6-yl)pyridine-4-carboxamide]
100 to 250 nM | < 100 nM | O=C1CCc2cc(Nc3ccc4ccccc4n3)c(F)cc2N1 [Compound 47, 7-fluoro-6-(2-quinolylamino)-3,4-dihydro-1H-quinolin-2-one]
> 5000 nM | > 5000 nM | O=C1CCc2cc(Nc3nccc4ccccc34)ccc2N1 [Compound 22, 6-(1-isoquinolylamino)-3,4-dihydro-1H-quinolin-2-one]
250 to 1000 nM | 250 to 1000 nM | CC1(C)Cc2cc(Nc3ncc4ccccc4n3)ccc2NC1=O [Compound 93, 3,3-dimethyl-6-(quinazolin-2-ylamino)-1,4-dihydroquinolin-2-one]
1000 to 5000 nM | 1000 to 5000 nM | Cc1cccc2ncc(Nc3ccc4c(c3)CCC(=O)N4)cc12 [Compound 101, 6-[(5-methyl-3-quinolyl)amino]-3,4-dihydro-1H-quinolin-2-one]
250 to 1000 nM | 1000 to 5000 nM | CCc1cnccc1/C=C/c1ccc2c(c1)CC(C)(C)C(=O)N2 [Compound 43, 6-[(E)-2-(3-ethyl-4-pyridyl)vinyl]-3,3-dimethyl-1,4-dihydroquinolin-2-one]
100 to 250 nM | < 100 nM | CC1(C)Cc2cc(Nc3cnc4ccccc4n3)c(F)cc2NC1=O [Compound 109, 7-fluoro-3,3-dimethyl-6-(quinoxalin-2-ylamino)-1,4-dihydroquinolin-2-one]
> 5000 nM | > 5000 nM | CC1(C)Cc2cc(Nc3cccc(Cl)n3)ccc2NC1=O [Compound 122, 6-[(6-chloro-2-pyridyl)amino]-3,3-dimethyl-1,4-dihydroquinolin-2-one]
250 to 1000 nM | 1000 to 5000 nM | CC1(C)Cc2cc(Nc3nc(=O)c4ccccc4[nH]3)ccc2NC1=O [Compound 116, 2-[(3,3-dimethyl-2-oxo-1,4-dihydroquinolin-6-yl)amino]-1H-quinazolin-4-one]
250 to 1000 nM | 1000 to 5000 nM | CCc1cnccc1C(=O)Nc1cc2ccc(=O)[nH]c2cc1F [Compound 39, 3-ethyl-N-(7-fluoro-2-oxo-1H-quinolin-6-yl) pyridine-4-carboxamide]
1000 to 5000 nM | > 5000 nM | CCc1cnccc1C(=O)Nc1ccc2c(c1)C(F)(F)C(=O)N2 [Compound 136]
1000 to 5000 nM | > 5000 nM | Cc1cc(C(=O)Nc2ccc3c(c2)CC2(CC2)C(=O)N3)c(Cl)cn1 [Compound 68]
1000 to 5000 nM | 1000 to 5000 nM | CC(C)c1cnccc1C(=O)Nc1cc2c(cc1F)NC(=O)CC2 [Compound 6]
250 to 1000 nM | 250 to 1000 nM | CC1(C)Cc2cc(Nc3ccc4ccccc4n3)c(F)cc2NC1=O [Compound 48, 7-fluoro-3,3-dimethyl-6-(2-quinolylamino)-1,4-dihydroquinolin-2-one]
